Peptide text beside a SMILES is read from it.

Experiment in all cases: Fluorescence polarization SH3 domain-PRP binding
Assay [1] deals with T1, ITSN1-4 SH3 domain (aa 1070-1138) (Homo sapiens, UniProt Q15811).
T1 construct: 1070-1138; GST (N); made in house; host or cells: Escherichia coli CodonPlus, Rosetta, BL21(DE3)
T1 sequence (Q15811 1070-1138): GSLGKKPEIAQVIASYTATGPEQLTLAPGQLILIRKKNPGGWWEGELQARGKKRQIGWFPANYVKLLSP
Conditions: FP, 0.2 µM fluorescein-labeled peptide, SH3 domain 0-200 µM, Tris/HCl pH 7.5, 25 °C, quadratic fit. On the procedure: (§1) The interaction between fluorescein-labeled proline-rich peptides (0.2 µM) and increasing concentrations of SH3 domains (ranging from 0 to 200 µM) was measured in a buffer (containing 30 mM Tris/HCl (pH 7.5), 5 mM MgCl2, and 3 mM DTT at 25 °C) in a total volume of 200 µL using a Fluoromax 4 fluorimeter in polarization mode and a quartz glass fluorescence cuvette (Hellma Ultra-Micro Cuvette 105.250-QS, Thermo Fisher Scientific, Waltham, MA USA). Excitation was performed at 470 nm and emission was measured at 560 nm. Dissociation constants (Kd) were determined by fitting the concentration-dependent binding curve to a quadratic ligand binding equation.
(§2) Fluorescence polarization measurements were performed to determine the binding affinities of SH3 domain–PRP interaction pairs from the dot blot analysis. SH3 proteins were titrated at increasing concentrations against fluorescent PRPs, which were kept at a constant concentration of 0.2 µM. GRB2-2^W193K, which is defective in the binding of PRPs such as RP1, was used as a negative control as previously described. […] The resulting data (Figure S6) allowed the evaluation of equilibrium dissociation constants (Kd) for 45 interactions between the SH3 domains and the PRPs (Figure 2B; Table S6).
(§3) Figure S6. Interactions of the SH3 domains with fluorescent PRPs measured by fluorescence polarization.
(§4) Fluorescent peptides (0.2 µM) were titrated with increasing concentrations of the corresponding SH3 domains.
(§5) GRB2-2W193K, defective in the binding of PRPs such as RP1, was used as a negative control as previously described. The x-axis represents SH3 domain concentrations as GST fusion proteins in µM, while the y-axis represents fluorescence polarization. The equilibrium dissociation constants (Kd) for the respective measurements were determined by fitting the titration curves to a quadratic ligand-binding equation (solid lines). All Kd values are […]
(§6) Error bars are derived from the fitting errors.

Assay [2] concerns the target T2, ITSN1-5 SH3 domain (aa 1155-1214) (Homo sapiens, UniProt Q15811).
T2 construct: 1155-1214; GST (N); made in house; host or cells: Escherichia coli CodonPlus, Rosetta, BL21(DE3)
T2 sequence (Q15811 1155-1214): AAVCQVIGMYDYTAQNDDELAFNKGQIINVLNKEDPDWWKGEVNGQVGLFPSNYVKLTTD
Conditions: FP, 0.2 µM fluorescein-labeled peptide, SH3 domain 0-200 µM, Tris/HCl pH 7.5, 25 °C, quadratic fit. On the procedure: as §1, §2, §3, §4, §5, §6

In assay [3] the target is T3, NCK1-1 SH3 domain (aa 2-61) (Homo sapiens, UniProt P16333).
T3 construct: 2-61; GST (N); made in house; host or cells: Escherichia coli CodonPlus, Rosetta, BL21(DE3)
Conditions: FP, 0.2 µM fluorescein-labeled peptide, SH3 domain 0-200 µM, Tris/HCl pH 7.5, 25 °C, quadratic fit, read-out: Kd. On the procedure: as §1, §2, §3, §4, §5, §6

The target of assay [4] is T4, NCK1-2 SH3 domain (aa 106-165) (Homo sapiens, UniProt P16333).
T4 construct: 106-165; GST (N); made in house; host or cells: Escherichia coli CodonPlus, Rosetta, BL21(DE3)
Conditions: FP, 0.2 µM fluorescein-labeled peptide, SH3 domain 0-200 µM, Tris/HCl pH 7.5, 25 °C, quadratic fit, read-out: Kd. On the procedure: as §1, §2, §3, §4, §5, §6

Assay [5] has as its target T5, NCK1-3 SH3 domain (aa 190–252) (Homo sapiens, UniProt P16333).
T5 construct: 190–252; GST (N); made in house; host or cells: Escherichia coli CodonPlus, Rosetta, BL21(DE3)
Conditions: NCK1-3 (wt); FP, 0.2 µM fluorescein-labeled peptide, SH3 domain 0-200 µM, Tris/HCl pH 7.5, 25 °C, quadratic fit; read-out: Kd. As for the experimental part:
as §1, §2, §3, §4, §5, §6

In a further assay the target is T6, NPHP1 SH3 domain (Homo sapiens, UniProt O15259).
T6 construct: GST (N); made in house; host or cells: Escherichia coli CodonPlus, Rosetta, BL21(DE3)
T6 sequence (O15259 152-212 limits assumed): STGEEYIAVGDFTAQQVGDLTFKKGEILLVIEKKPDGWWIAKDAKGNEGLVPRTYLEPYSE
Conditions: FP, 0.2 µM fluorescein-labeled peptide, SH3 domain 0-200 µM, Tris/HCl pH 7.5, 25 °C, quadratic fit. As for the experimental part:
as §1, §2, §3, §4, §5, §6

Assay [6] concerns the target T7, RASA1 SH3 domain (aa 279–341) (Homo sapiens, UniProt P20936).
T7 construct: 279–341; GST (N); made in house; host or cells: Escherichia coli CodonPlus, Rosetta, BL21(DE3)
T7 sequence (P20936 279-341): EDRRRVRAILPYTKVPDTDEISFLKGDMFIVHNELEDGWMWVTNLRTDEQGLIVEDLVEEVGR
Conditions: FP, 0.2 µM fluorescein-labeled peptide, SH3 domain 0-200 µM, Tris/HCl pH 7.5, 25 °C, quadratic fit. As for the experimental part:
as §1, §2, §3, §4, §5, §6

Assay [7] addresses T8, RIMBP3B-1 SH3 domain (aa 832-899) (Homo sapiens, UniProt A6NNM3).
T8 construct: 832-899; GST (N); made in house; host or cells: Escherichia coli CodonPlus, Rosetta, BL21(DE3)
T8 sequence (A6NNM3 832-899): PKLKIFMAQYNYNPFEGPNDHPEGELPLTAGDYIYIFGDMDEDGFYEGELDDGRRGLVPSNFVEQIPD
Conditions: FP, 0.2 µM fluorescein-labeled peptide, SH3 domain 0-200 µM, Tris/HCl pH 7.5, 25 °C, quadratic fit. As for the experimental part:
as §1, §2, §3, §4, §5, §6

Assay [8] deals with T9, SH3GLB1 SH3 domain (aa 305-365) (Homo sapiens, UniProt Q9Y371).
T9 construct: 305-365; GST (N); made in house; host or cells: Escherichia coli CodonPlus, Rosetta, BL21(DE3)
T9 sequence (Q9Y371 305-365): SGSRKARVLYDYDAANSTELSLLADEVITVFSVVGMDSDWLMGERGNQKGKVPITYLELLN
Conditions: FP, 0.2 µM fluorescein-labeled peptide, SH3 domain 0-200 µM, Tris/HCl pH 7.5, 25 °C, quadratic fit. As for the experimental part: as §1, §2, §3, §4, §5, §6

Assay [9] deals with T10, SNX9 SH3 domain (aa 1-62) (Homo sapiens, UniProt Q9Y5X1).
T10 construct: 1-62; GST (N); made in house; host or cells: Escherichia coli CodonPlus, Rosetta, BL21(DE3)
Conditions: FP, 0.2 µM fluorescein-labeled peptide, SH3 domain 0-200 µM, Tris/HCl pH 7.5, 25 °C, quadratic fit. On the procedure: as §1, §2, §3, §4, §5, §6

Assay [10] deals with T11, SORBS1-1 SH3 domain (aa 793-852) (Homo sapiens, UniProt Q9BX66).
T11 construct: 793-852; GST (N); made in house; host or cells: Escherichia coli CodonPlus, Rosetta, BL21(DE3)
T11 sequence (Q9BX66 793-852): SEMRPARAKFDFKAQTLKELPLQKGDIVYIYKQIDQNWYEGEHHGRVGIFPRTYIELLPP
Conditions: FP, 0.2 µM fluorescein-labeled peptide, SH3 domain 0-200 µM, Tris/HCl pH 7.5, 25 °C, quadratic fit. On the procedure: as §1, §2, §3, §4, §5, §6

Assay [11] deals with T12, SRC SH3 domain (aa 77-140) (Homo sapiens, UniProt P12931).
T12 construct: 77-140; GST (N); made in house; host or cells: Escherichia coli CodonPlus, Rosetta, BL21(DE3)
Conditions: FP, 0.2 µM fluorescein-labeled peptide, SH3 domain 0-200 µM, Tris/HCl pH 7.5, 25 °C, quadratic fit. On the procedure:
as §1, §2, §3, §4, §5, §6

T10 sequence (Q9Y5X1 1-62): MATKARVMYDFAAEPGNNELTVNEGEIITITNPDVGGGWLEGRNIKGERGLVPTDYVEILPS
T12 sequence (P12931 77-140 limits assumed): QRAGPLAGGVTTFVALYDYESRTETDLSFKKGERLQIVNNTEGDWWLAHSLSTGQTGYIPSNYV

With `CC[C@H](C)[C@H](NC(=O)[C@H](CCCCN)NC(=O)[C@H](CO)NC(=O)[C@@H]1CCCN1C(=O)[C@H](CO)NC(=O)[C@H](CO)NC(=O)[C@H](CCC(=O)O)NC(=O)[C@H](C)NC(=O)[C@@H]1CCCN1C(=O)[C@H](C)NC(=O)[C@H](CO)NC(=O)[C@H](CCC(=O)O)NC(=O)[C@@H]1CCCN1C(=O)[C@H](CCCNC(=N)N)NC(=O)[C@H](CCCNC(=N)N)NC(=O)[C@H](CCCNC(=N)N)NC(=O)[C@@H]1CCCN1C(=O)[C@@H]1CCCN1C(=O)[C@@H](NC(=O)[C@@H]1CCCN1C(=O)[C@@H]1CCCN1C(=O)[C@@H]1CCCN1C(=O)[C@@H](NC(=O)[C@@H]1CCCN1C(=O)[C@@H](NC(=O)[C@@H](N)CCC(=O)O)C(C)C)C(C)C)C(C)C)C(=O)O` [Peptide P3] (H-EVPVPPPVPPRRRPESAPAESSPSKI-OH), the Kd (in assay [1]; in assay [2]; in assay [3]; in [4]; in assay [5]; on NPHP1 SH3 domain) was above 200 µM each time. The Kd in [6] was above 200 µM; in [7] it was above 200 µM; in assay [8], above 200 µM; in assay [9] it was above 200 µM; in assay [10], above 200 µM; in assay [11], 2 µM.

As to `CC(C)C[C@H](NC(=O)[C@@H]1CCCN1C(=O)[C@@H]1CCCN1C(=O)[C@H](CO)NC(=O)[C@@H]1CCCN1C(=O)[C@H](CC(C)C)NC(=O)[C@H](Cc1c[nH]cn1)NC(=O)[C@@H](N)CCCNC(=N)N)C(=O)N[C@H](C(=O)N[C@@H](CCC(N)=O)C(=O)O)[C@@H](C)O` [Peptide P8] (H-RHLPSPPLTQ-OH; N-terminus and C-terminus assumed), the Kd (in [1]; in assay [2]; in assay [3]; in assay [4]; in [5]; at NPHP1 SH3 domain) was above 200 µM in each case. Moreover, the Kd in assay [6], in assay [7], in [8], in assay [9], in assay [10] and in [11] was above 200 µM throughout.

For the compound `CC(C)C[C@H](NC(=O)[C@@H](NC(=O)[C@@H](N)C(C)C)[C@@H](C)O)C(=O)N1CCC[C@H]1C(=O)N[C@@H](Cc1c[nH]cn1)C(=O)NCC(=O)N1CCC[C@H]1C(=O)N[C@@H](CCCNC(=N)N)C(=O)N[C@@H](CO)C(=O)N[C@@H](C)C(=O)O` [Peptide P2] (H-VTLPHGPRSA-OH), the dissociation constant Kd (in assay [1]; in assay [2]; in assay [3]; in assay [4]; in assay [5]; at NPHP1 SH3 domain) was above 200 µM each time. Besides, the Kd was above 200 µM in [6]; 21 µM in assay [7]; above 200 µM in assay [8]; above 200 µM in [9]; above 200 µM in assay [10]; above 200 µM in assay [11].

With `CC(C)[C@H](NC(=O)[C@@H]1CCCN1C(=O)[C@@H]1CCCN1C(=O)[C@H](C)NC(=O)[C@H](CCC(=O)O)NC(=O)[C@H](CS)NC(=O)[C@@H](N)CCCNC(=N)N)C(=O)N1CCC[C@H]1C(=O)N1CCC[C@H]1C(=O)N[C@@H](CCCNC(=N)N)C(=O)N[C@@H](CCCNC(=N)N)C(=O)N[C@@H](CCC(=O)O)C(=O)N[C@@H](CCCNC(=N)N)C(=O)NCC(=O)O` [RP2, reference compound] (H-RCEAPPVPPRRERG-OH), the dissociation constant Kd in [1] is above 200 µM; in assay [2], 23 µM; in assay [3] it was above 200 µM; in [4], 1 µM; in assay [5], 2.5 µM; at NPHP1 SH3 domain, above 200 µM. For the same compound, the Kd in [6], in assay [7], in assay [8], in assay [9], in [10] and in assay [11] was above 200 µM throughout.

Values taken from article PMC10814857, “Functional Classification and Interaction Selectivity Landscape of the Human SH3 Domain Superfamily” (Cells, 2024).
